Results on three compounds are retold here after US10703751B2, “Amino-imidazopyridine derivatives as Janus kinase inhibitors and pharmaceutical use thereof” (LEO Pharma A/S, priority 2017, dated 2020).

Data set [1] has as its target CYP3A4 (Homo sapiens (Human), UniProt P08684). In words: Reversible CYP inhibition, 3A4. The data set is classed as in vitro ADME. The settings on record: for pIC50: up to 50 μM for Example 3, up to 25 μM for Examples 644 and 641. The method, then:
(§1) Reversible CYP inhibition, time dependent CYP inhibition (TDI) and CYP induction was tested at Cyprotex PLC according to authority guidance.

Data set [2] addresses CYP2C19 (Homo sapiens (Human), UniProt P33261). The data set can be described thus: Reversible CYP inhibition, 2C19. The data set is classed as in vitro ADME. The following applies: up to 50 μM for Example 3, up to 25 μM for Examples 644 and 641. The method, then: as §1
The subject of data set [3] is STAT6 bla-RA1 cells. In words: STAT6 assay (IL-4 stimulated reporter cells). The format is cell-based. The settings on record: for pEC50: interleukin 4 10 ng/mL; for STAT5/STAT6 EC50 ratio (selectivity for STAT6 over STAT5): selectivity for STAT6 over STAT5, from EC50. The procedure:
Twenty-five μL of a STAT6 bla-RA1 (Invitrogen # K1243) cell suspension was seeded with a density of 30-40,000 cells/well in 384-well Black View-plates (PerkinElmer #6007460) with clear bottom in assay medium (Opti-MEM (Invitrogen #11058-021)+0.5% heat inactivated fetal bovine Serum (Invitrogen #10082-147)+1% non-essential amino acids (Invitrogen #11140-050)+1% sodium pyruvate (Invitrogen #11360-070)+1% penicillin/streptomycin (Invitrogen #15140-122)); containing 550 ng/mL of CD40 ligand (Invitrogen # PHP0025). The cell plates were incubated overnight in a humidified 37° C. air/CO2 (95%/5%) incubator. The following day, 125 nL of solutions of test compounds and reference compounds were transferred to cell plates using the Labcyte Echo 550 liquid handler. The plates were then incubated for 1 h in a humidified 37° C. air/CO2 (95%/5%) incubator. Hereafter recombinant human interleukin 4 (Invitrogen # PHC0045) were added to the plates also using the Labcyte Echo 550 to a final concentration of 10 ng/mL. The cells were then incubated for 4½-5 h in a humidified 37° C. air/CO2 (95%/5%) incubator. 8 μL of LiveBLAzer substrate mixture (Invitrogen # K1095) were then added to the assay plates, which were incubated overnight at RT. Fluorescence was then measured: Excitation: 405 nm; Emission: 460 nm (green channel), Emission: 535 nm (blue channel). Background was subtracted in both emission channels and the ratio 460/535 nm was calculated for each well.

Data set [4] is described as follows: Aqueous solubility of crystalline material. The format is physicochemical. The following applies: aqueous medium, aqueous buffer, thermodynamic from solid. The procedure: The aqueous solubility of crystalline Example 3, Example 644 and 641 of WO2011086053 at different pH's was evaluated.
Data set [5] addresses CYP2C9 (Homo sapiens (Human), UniProt P11712). In words: Reversible CYP inhibition, 2C9. The format is in vitro ADME. The settings on record: up to 50 μM for Example 3, up to 25 μM for Examples 644 and 641. The procedure:
as §1

The target in data set [6] is panel of 23 Tyrosine kinases, including JAK1, and 68 Serine and Threonine kinases. The data set can be described thus: Kinase selectivity panel at CARNA Biosciences. The data set is classed as biochemical. The settings on record: inhibitor concentration approximately 1000 times JAK1 EC50. The method, then: The kinase selectivity profiles of Example 3 of the present invention as well as Examples 644 and 641 of WO2011086053 were evaluated at CARNA Biosciences Inc. with a panel consisting of 23 Tyrosine kinases, including JAK1 (ABL, CSK, EGFR, EPHA2, EPHB1, EPHB4, FGFR1, FLT3, IGF1R, ITK, JAK1, JAK3, KDR, […], PDGFRα, PDGFRβ, PYK2, SRC, TIE2, TRKA and TYRO3) as well as 68 Serine and Threonine kinases ([…], AKT1, AMPKα1/β1/γ1, AurA, AurB, AurC, BRSK2 ([ATP]=Km value), CaMK1a ([ATP]=Km value), CaMK2a ([ATP]=Km value), CaMK4, CDC2/CycB1, CDC7/ASK, CDK2/CycA2, CDK2/CyE1, CDK3/CyE1 ([ATP]=Km value), CDK4/CyD3, CDK6/CyD3, CDK7/CycH/MAT1, CDK9/CycT1, CHK1, CK1ε, CK2α1/β, CK2α2/β, CLK1, CLK2, DAPK1, DYRK1B, Erk2, GSK3α, GSK3β, HGK, IKKβ, IRAK4 ([ATP]=Km value), JNK2, LOK ([ATP]=Km value), MAPKAP2, MLK1, MLK2, MNK2 ([ATP]=Km value), MST1, MST2 ([ATP]=Km value), NEK1, NEK2, NEK6, NEK7, NEK9, p38α, p70S6K, PAK1 ([ATP]=Km value), PAK2, PAK5 ([ATP]=Km value), PBK, PDK1, PIM1, PIM2, PKACα, PKCα, OKD2, PKN1 ([ATP]=Km value), PLK1, PLK2 ([ATP]=Km value), ROCK1, RSK1, SGK, skMLCK ([ATP]=Km value) and TSSK1). […] The percentage of inhibition was measured at an inhibitor concentration of approximately 1000 times JAK1 EC50.

pEC50, pIC50: −log10 of the molar value. Converted amounts (≈) assume the structure as drawn. “Also recorded” adds a separate entry of the source.

Sequence of CYP3A4 (P08684 whole entry): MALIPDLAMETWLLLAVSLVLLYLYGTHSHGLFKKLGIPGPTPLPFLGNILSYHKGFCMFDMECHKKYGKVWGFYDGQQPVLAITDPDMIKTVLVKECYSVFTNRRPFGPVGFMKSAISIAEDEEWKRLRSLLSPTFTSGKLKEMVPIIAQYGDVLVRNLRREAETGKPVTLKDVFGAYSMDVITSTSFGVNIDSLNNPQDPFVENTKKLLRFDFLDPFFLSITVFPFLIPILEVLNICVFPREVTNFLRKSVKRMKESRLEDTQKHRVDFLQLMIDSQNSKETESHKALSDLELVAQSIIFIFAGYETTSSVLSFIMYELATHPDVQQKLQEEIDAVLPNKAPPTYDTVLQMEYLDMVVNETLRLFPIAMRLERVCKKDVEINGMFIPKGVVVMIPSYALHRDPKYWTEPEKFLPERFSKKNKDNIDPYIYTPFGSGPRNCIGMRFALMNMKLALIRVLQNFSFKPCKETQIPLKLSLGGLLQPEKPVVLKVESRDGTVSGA
Sequence of CYP2C9 (P11712 whole entry): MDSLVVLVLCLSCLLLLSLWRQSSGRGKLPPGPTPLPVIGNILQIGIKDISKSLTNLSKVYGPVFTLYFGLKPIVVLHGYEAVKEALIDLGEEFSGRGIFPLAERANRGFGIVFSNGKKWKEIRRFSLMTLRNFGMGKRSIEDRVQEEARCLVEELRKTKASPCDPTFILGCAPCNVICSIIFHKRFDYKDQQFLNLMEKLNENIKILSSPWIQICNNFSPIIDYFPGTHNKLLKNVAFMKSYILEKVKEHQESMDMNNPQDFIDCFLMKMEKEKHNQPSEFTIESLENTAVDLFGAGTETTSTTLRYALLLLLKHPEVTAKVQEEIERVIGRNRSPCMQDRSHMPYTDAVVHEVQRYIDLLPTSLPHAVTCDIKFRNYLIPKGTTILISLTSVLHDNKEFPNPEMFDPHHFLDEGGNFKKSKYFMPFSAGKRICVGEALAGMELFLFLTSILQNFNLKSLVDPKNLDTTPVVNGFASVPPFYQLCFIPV
Sequence of CYP2C19 (P33261 whole entry): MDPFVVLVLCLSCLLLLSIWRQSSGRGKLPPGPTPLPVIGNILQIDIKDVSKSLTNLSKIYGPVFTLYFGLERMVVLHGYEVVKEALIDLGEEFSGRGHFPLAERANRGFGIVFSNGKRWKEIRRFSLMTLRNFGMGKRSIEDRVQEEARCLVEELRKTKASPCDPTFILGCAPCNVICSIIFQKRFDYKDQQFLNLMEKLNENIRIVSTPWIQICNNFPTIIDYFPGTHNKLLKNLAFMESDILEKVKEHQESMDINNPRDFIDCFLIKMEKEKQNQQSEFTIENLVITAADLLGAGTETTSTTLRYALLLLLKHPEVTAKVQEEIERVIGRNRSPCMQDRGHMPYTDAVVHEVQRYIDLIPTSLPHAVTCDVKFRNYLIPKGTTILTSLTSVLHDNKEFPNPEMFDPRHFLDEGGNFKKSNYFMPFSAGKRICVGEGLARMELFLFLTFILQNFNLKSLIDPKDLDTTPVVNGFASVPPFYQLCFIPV

On to `C[C@@H](O)c1nc2cnc3[nH]ccc3c2n1[C@H]1CC[C@H](C#N)CC1` [Example 641 of WO2011086053], for which the “CYP3A4 inhibition (in words)” value in data set [1] is given as “weak CYP3A4 inhibition”. The pIC50 in data set [1] is 4.96; in data set [2], under 4.60; in data set [5], under 4.60. Also, the pEC50 in data set [3] is 6.75. Besides, the “STAT5/STAT6 EC50 ratio (selectivity for STAT6 over STAT5)” value in data set [3] is on record as 32. The solubility in data set [4] (pH 2.0, crystalline material) turned out to be 90000 µg/mL (≈ 291 mM); in data set [4] (pH 7.4, crystalline material) it was 2260 µg/mL (≈ 7.31 mM); in data set [4] (pH 9.0, crystalline material), 2280 µg/mL (≈ 7.37 mM). Besides, in data set [6], the “Kinases of the panel inhibited by 50% or more (summary)” value is listed as “inhibited nine other kinases besides JAK1 by 50% or more”. In data set [6], the “Serine and Threonine kinases inhibited by 50% or more (n ≥ 2)” value was “BRSK2, [ATP] = 50 μM; also recorded: LOK, [ATP] = 100 μM; also recorded: MST1, [ATP] = 1 mM; also recorded: MST2, [ATP] = 75 μM; also recorded: PKN1, [ATP] = 25 μM”. Also, in data set [6], the “Tyrosine kinases inhibited by 50% or more at an ATP concentration of 1 mM (n ≥ 2)” value is “JAK1 and FGFR1 and FLT3 and KDR and PDGFRα”.

Consider `CNc1cc2c(cn1)nc([C@@H](C)O)n2[C@H]1CC[C@H](CC#N)CC1` [Example 3, trans-2-[4-[2-[(1R)-1-Hydroxyethyl]-6-(methylamino)imidazo[4,5-c]pyridin-1-yl]cyclohexyl]acetonitrile], for which the pIC50 in data set [1], in data set [2] and in data set [5] was under 4.30 each time. Moreover, the pEC50 in data set [3] is 7.02. In data set [3], the “STAT5/STAT6 EC50 ratio (selectivity for STAT6 over STAT5)” value is 68. Besides, the solubility is over 346000 µg/mL in data set [4] (pH 2.0, crystalline material); 12300 µg/mL (≈ 39.2 mM) in data set [4] (pH 7.4, crystalline material); 11100 µg/mL (≈ 35.4 mM) in data set [4] (pH 9.0, crystalline material). The “Kinases of the panel inhibited by 50% or more (summary)” value in data set [6] is “none of the tested kinases except JAK1 were inhibited by more than 50%”. Also, in data set [6], the “Tyrosine kinases inhibited by 50% or more at an ATP concentration of 1 mM (n ≥ 2)” value is “JAK1”.

In the case of `C[C@@H](O)c1nc2cnc3[nH]ccc3c2n1[C@H]1CC[C@H](CC#N)CC1` [Example 644 of WO2011086053], in data set [1], the “CYP3A4 inhibition (in words)” value is reported as “weak CYP3A4 inhibition”. Further, the pIC50 in data set [1] was 4.97; in data set [2] it was under 4.60; in data set [5], under 4.60. The pEC50 in data set [3] was 7.98. In addition, the solubility in data set [4] (pH 2.0, crystalline material) stood at 2470 µg/mL (≈ 7.64 mM); in data set [4] (pH 7.4, crystalline material) it was 136 µg/mL (≈ 0.421 mM); in data set [4] (pH 9.0, crystalline material) it was 9.9 µg/mL (≈ 0.0306 mM). Further, the “Kinases of the panel inhibited by 50% or more (summary)” value in data set [6] is “inhibited nine other kinases besides JAK1 by 50% or more”. Also, in data set [6], the “Serine and Threonine kinases inhibited by 50% or more (n ≥ 2)” value is “BRSK2, [ATP] = 50 μM; also recorded: LOK, [ATP] = 100 μM; also recorded: MST2, [ATP] = 75 μM; also recorded: PKN1, [ATP] = 25 μM”. The “Tyrosine kinases inhibited by 50% or more at an ATP concentration of 1 mM (n ≥ 2)” value in data set [6] was “JAK1 and FGFR1 and FLT3 and KDR and PDGFRα and PDGFRβ”.

By pIC50 is commonly meant the negative decadic logarithm of the IC50, by convention in mol/L. The pEC50 is the negative decadic logarithm of the EC50, by convention in mol/L. A low value points to a large EC50. A word on the solubility: it is the concentration that dissolves in the medium under given conditions. A low value points to a poorly soluble substance.
